From US20230340012A1, “NATURAL AND SYNTHETIC COMPOUNDS FOR TREATING CANCER AND OTHER DISEASES” (PACIFIC ARROW LIMITED, priority 2009, published 2023)

System: cancer cells
Test: MTT cytotoxic assay of esterification products (Cytotoxicity activity)
Assay type: cell-based, human
Settings: MTT cytotoxic assay, isolated esterification products of E4A
Excerpt: The peaks, fractions and compounds are selected according to the activities of times studies and the changes of peaks. Selecting the HPLC fractions for isolation is according to the cytotoxic activity of the reaction product obtained at a specific time. The compounds having strong to weak activities are selected and isolated. Selecting the HPLC fractions for isolation may be according to the cytotoxic activity of times studies and the change of peaks. The anti-cancer activities are the MTT studies of bone (U2OS), lung (H460), bladder (HTB-9), ovary (ES2), colon (HCT116), pancreas (Capan), ovary(OVCAR3), prostate (DU145), skin (SK-Mel-5), mouth (KB), kidney (A498), breast (MCF-7), liver (HepG2), brain (T98G), leukemia (K562), cervix (HeLa).
Esterification of compound (A), (B), (C), (D1), (D2), (E), (F), (G), (H1), (H2), E4A, E4A2Y, (P1), P(2), terpene, isoprene, triterpenes, hydroxylated triterpenes, with acyl halide, wherein the halide comprise chloride, bromide, fluoride and iodide, wherein the acyl halide comprise acyl chloride, wherein acyl chloride comprise tigloyl chloride, angeloyl chloride, acetyl chloride, crotonoyl chloride, 3,3-Dimethylacryloyl chloride, senecioyl chloride, cinnamoyl chloride, pentenoyl chloride, hexanoyl chloride, benzoyl chloride, ethylbutyryl chloride, propionyl chloride, 2-propenoyl chloride, isobutyryl chloride, butyryl chloride, (2E)-2-pentenoyl chloride, 4-Pentenoyl chloride, 5-hexenoyl chloride, heptanoyl chloride, octanoyl chloride, nonanoyl chloride, decanoyl chloride, Lauroyl chloride, myristoyl chloride, oleoyl chloride. The compounds vary in composition when the time or temperature of the reaction is changed. The peaks, fractions and compounds are selected according to the activities of times studies and the changes of peaks. The compounds having strong to weak activities are selected and isolated. The anti-cancer activities (Cytotoxic Assay) are the MTT studies of bone (U2OS), lung (H460), bladder(HTB-9), ovary (ES2), colon (HCT116), pancreas (Capan), ovary(OVCAR3), prostate (DU145), skin (SK-Mel-5), mouth (KB), kidney (A498), breast (MCF-7), liver (HepG2), brain (T98G), leukemia (K562), cervix (HeLa). The active esterification products are purified with HPLC. The reaction product of mixtures and individual compounds are tested with MTT Cytotoxic Assay. Details of method are in Experiment 3 of the present application. A second esterification of compound can be selected from the above experiment results to produce new active compounds. A partial esterification compound is selected from the above experiments to perform a second or repeated with a third esterification with different acyl chloride in order to produce new active compounds with the experiments in the present application.
Method: 40 mg of triterpene core (fraction IV) was dissolved in 1 ml pyridine in a 50 ml tube. Reaction is started by adding 0.2 ml of acyl chloride (Tigloyl chloride, angeloyl chloride, Acetyl chloride, Crotonoyl chloride, 3,3-Dimethylacryloyl chloride(senecioyl chloride), Cinnamoyl chloride, Pentenoyl chloride, Hexanoyl chloride, benzoyl chloride or Ethylbutyryl chloride). The mixture is stirred for 5 sec, 1 min, 2 min, 5 min, 10 min, 30 min, 1 hr, 2 hr, 18 hr, 2 days or 3 days at 0° C., 25° C. or 75° C. temperature. At the end of reaction, 5 ml of 2N HCl or 1 M NaHCO3 is added to the reaction mixture. The solution is then extracted 3 times with 10 ml of ethyl acetate which is then evaporated under vacuum and at 45C and lyophilization. The reaction product is dissolved in 80% acetonitrile - 0.005% Trifluoroacetic acid or DMSO; and was separated with HPLC. Selecting the HPLC fractions for isolation is according to the cytotoxic activity of the reaction product obtained at a specific reaction time. The active esterification products are purified with HPLC. The reaction product of mixtures and individual compounds are tested with MTT cytotoxic assay. Structures are determined with NMR. […]

Structure (SMILES)	Cytotoxicity activity
CC=C(C)C(=O)OCC1(C)C(O)CCC2(C)C1CCC1(C)C2CC=C2C3CC(C)(C)C(O)C(O)C3(CO)C(O)CC21C (stereo not drawn) [Compound A1]	moderate
CC=C(C)C(=O)OCC12C(O)CC3(C)C(=CCC4C5(C)CCC(O)C(C)(CO)C5CCC43C)C1CC(C)(C)C(O)C2O (stereo not drawn) [Compound A2]	moderate
CC=C(C)C(=O)OCC1(C)C(O)CCC2(C)C1CCC1(C)C2CC=C2C3CC(C)(C)C(O)C(O)C3(COC(=O)C(C)=CC)C(O)CC21C (stereo not drawn) [Compound A3]	strong
CC=C(C)C(=O)OCC1(C)C(O)CCC2(C)C1CCC1(C)C2CC=C2C3CC(C)(C)C(OC(=O)C(C)=CC)C(O)C3(COC(=O)C(C)=CC)C(O)CC21C (stereo not drawn) [Compound A4]	moderate
CC=C(C)C(=O)OCC1(C)C(O)CCC2(C)C1CCC1(C)C2CC=C2C3CC(C)(C)C(O)C(OC(=O)C(C)=CC)C3(COC(=O)C(C)=CC)C(O)CC21C (stereo not drawn) [Compound A5]	moderate
CC=C(C)C(=O)OCC1(C)C(OC(=O)C(C)=CC)CCC2(C)C1CCC1(C)C2CC=C2C3CC(C)(C)C(O)C(O)C3(COC(=O)C(C)=CC)C(O)CC21C (stereo not drawn) [Compound A6]	moderate
CC=C(C)C(=O)OCC1(C)C(O)CCC2(C)C1CCC1(C)C2CC=C2C3CC(C)(C)C(O)C(O)C3(COC(=O)C(C)=CC)C(OC(=O)C(C)=CC)CC21C (stereo not drawn) [Compound A7]	moderate
CC=C(C)C(=O)OCC1(C)C(O)CCC2(C)C1CCC1(C)C2CC=C2C3CC(C)(C)C(OC(=O)C(C)=CC)C(OC(=O)C(C)=CC)C3(COC(=O)C(C)=CC)C(O)CC21C (stereo not drawn) [Compound A8]	weak
CC=C(C)C(=O)OCC1(C)C(OC(=O)C(C)=CC)CCC2(C)C1CCC1(C)C2CC=C2C3CC(C)(C)C(O)C(OC(=O)C(C)=CC)C3(COC(=O)C(C)=CC)C(O)CC21C (stereo not drawn) [Compound A9]	weak
CC=C(C)C(=O)OCC1(C)C(OC(=O)C(C)=CC)CCC2(C)C1CCC1(C)C2CC=C2C3CC(C)(C)C(O)C(O)C3(COC(=O)C(C)=CC)C(OC(=O)C(C)=CC)CC21C (stereo not drawn) [Compound A10]	weak
CC=C(C)C(=O)OCC1(C)C(OC(=O)C(C)=CC)CCC2(C)C1CCC1(C)C2CC=C2C3CC(C)(C)C(OC(=O)C(C)=CC)C(O)C3(COC(=O)C(C)=CC)C(O)CC21C (stereo not drawn) [Compound A11]	weak
CC=C(C)C(=O)OCC1(C)C(O)CCC2(C)C1CCC1(C)C2CC=C2C3CC(C)(C)C(O)C(OC(=O)C(C)=CC)C3(COC(=O)C(C)=CC)C(OC(=O)C(C)=CC)CC21C (stereo not drawn) [Compound A12]	weak
CC=C(C)C(=O)OCC1(C)C(O)CCC2(C)C1CCC1(C)C2CC=C2C3CC(C)(C)C(OC(=O)C(C)=CC)C(O)C3(COC(=O)C(C)=CC)C(OC(=O)C(C)=CC)CC21C (stereo not drawn) [Compound A13]	weak
CC=C(C)C(=O)OCC1(C)C(OC(=O)C(C)=CC)CCC2(C)C1CCC1(C)C2CC=C2C3CC(C)(C)C(O)C(OC(=O)C(C)=CC)C3(COC(=O)C(C)=CC)C(O)CC21C (stereo not drawn) [Compound A14]	weak
CC=C(C)C(=O)OCC1(C)C(OC(=O)C(C)=CC)CCC2(C)C1CCC1(C)C2CC=C2C3CC(C)(C)C(OC(=O)C(C)=CC)C(OC(=O)C(C)=CC)C3(COC(=O)C(C)=CC)C(O)CC21C (stereo not drawn) [Compound A15]	weak
CC=C(C)C(=O)OCC1(C)C(O)CCC2(C)C1CCC1(C)C2CC=C2C3CC(C)(C)C(OC(=O)C(C)=CC)C(OC(=O)C(C)=CC)C3(COC(=O)C(C)=CC)C(OC(=O)C(C)=CC)CC21C (stereo not drawn) [Compound A16]	weak
CC=C(C)C(=O)OCC1(C)C(OC(=O)C(C)=CC)CCC2(C)C1CCC1(C)C2CC=C2C3CC(C)(C)C(OC(=O)C(C)=CC)C(O)C3(COC(=O)C(C)=CC)C(OC(=O)C(C)=CC)CC21C (stereo not drawn) [Compound A17]	weak
CC=C(C)C(=O)OCC1(C)C(OC(=O)C(C)=CC)CCC2(C)C1CCC1(C)C2CC=C2C3CC(C)(C)C(O)C(OC(=O)C(C)=CC)C3(COC(=O)C(C)=CC)C(OC(=O)C(C)=CC)CC21C (stereo not drawn) [Compound A18]	weak
